Active and inactive are the calls of the source. No rule for the calls is given here.
Tests used:
Saccharomyces cerevisiae [1] = experiment: Antifungal activity against yeast AD1-8u expressing Candida albicans CaCdr1p by agar disk diffusion assay; type: functional
Candida albicans [2] = experiment: Binding affinity to Candida albicans CaCdr1p expressed in yeast AD1-8u
Saccharomyces cerevisiae [3] = experiment: Antifungal activity against yeast AD1-8u expressing Candida albicans CaMdr1p by agar disk diffusion assay; type: functional; also: test concentration or dose not given here
Candida albicans [4] = experiment: Binding affinity to Candida albicans CaMdr1p expressed in yeast AD1-8u
For IZ in this document: test concentration or dose not given here.

O=C1c2c(O)ccc(O)c2C(=O)c2c(NCCNCCO)ccc(NCCNCCO)c21 [MITOXANTRONE]
inhibition zone (IZ) (Saccharomyces cerevisiae [1]): 0.2 cm | Activity (Candida albicans [2]): inactive | inhibition zone (IZ) (Saccharomyces cerevisiae [3]): 0.3 cm | Activity (Candida albicans [4]): Active

COc1c(C)c2c(c(O)c1C/C=C(\C)CCC(=O)O)C(=O)OC2 [MYCOPHENOLIC ACID]
inhibition zone (IZ) (Saccharomyces cerevisiae [1]): 0 cm | Activity (Candida albicans [2]): inactive | inhibition zone (IZ) (Saccharomyces cerevisiae [3]): 0 cm | Activity (Candida albicans [4]): inactive

COC(=O)C1=C(C)NC(C)=C(C(=O)OC)C1c1ccccc1[N+](=O)[O-] [NIFEDIPINE]
inhibition zone (IZ) (Saccharomyces cerevisiae [1]): 0 cm | Activity (Candida albicans [2]): inactive | inhibition zone (IZ) (Saccharomyces cerevisiae [3]): 0 cm | Activity (Candida albicans [4]): inactive

COC(=O)C1=C(C)NC(C)=C(C(=O)OCCCN2CCC(c3ccccc3)(c3ccccc3)CC2)[C@H]1c1cccc([N+](=O)[O-])c1 [NIGULDIPINE]
inhibition zone (IZ) (Saccharomyces cerevisiae [1]): 0.5 cm | Activity (Candida albicans [2]): Active | inhibition zone (IZ) (Saccharomyces cerevisiae [3]): 0.2 cm | Activity (Candida albicans [4]): inactive

COCCOC(=O)C1=C(C)NC(C)=C(C(=O)OC(C)C)C1c1cccc([N+](=O)[O-])c1 (stereo not given) [NIMODIPINE]
inhibition zone (IZ) (Saccharomyces cerevisiae [1]): 0 cm | Activity (Candida albicans [2]): inactive | inhibition zone (IZ) (Saccharomyces cerevisiae [3]): 0 cm | Activity (Candida albicans [4]): inactive

CO[C@@H]1[C@@H](OC(N)=O)[C@@H](O)[C@H](Oc2ccc3c(O)c(NC(=O)c4ccc(O)c(CC=C(C)C)c4)c(=O)oc3c2C)OC1(C)C [NOVOBIOCIN]
inhibition zone (IZ) (Saccharomyces cerevisiae [1]): 0 cm | Activity (Candida albicans [2]): inactive | inhibition zone (IZ) (Saccharomyces cerevisiae [3]): 0 cm | Activity (Candida albicans [4]): inactive

C[C@@H]1O[C@@H](O[C@H]2C[C@@H](O)[C@]3(CO)[C@H]4[C@H](O)C[C@]5(C)[C@@H](C6=CC(=O)OC6)CC[C@]5(O)[C@@H]4CC[C@]3(O)C2)[C@H](O)[C@H](O)[C@H]1O [OUABAIN]
inhibition zone (IZ) (Saccharomyces cerevisiae [1]): 0 cm | Activity (Candida albicans [2]): inactive | inhibition zone (IZ) (Saccharomyces cerevisiae [3]): 0 cm | Activity (Candida albicans [4]): inactive

Oc1cccc2cccnc12 [OXYQUINOLINE]
inhibition zone (IZ) (Saccharomyces cerevisiae [1]): 0 cm | Activity (Candida albicans [2]): inactive | inhibition zone (IZ) (Saccharomyces cerevisiae [3]): 0 cm | Activity (Candida albicans [4]): inactive

CC(=O)O[C@H]1C(=O)[C@@]2(C)[C@H]([C@H](OC(=O)c3ccccc3)[C@]3(O)C[C@H](OC(=O)[C@H](O)[C@@H](NC(=O)c4ccccc4)c4ccccc4)C(C)=C1C3(C)C)[C@]1(OC(C)=O)CO[C@@H]1C[C@@H]2O [PACLITAXEL]
inhibition zone (IZ) (Saccharomyces cerevisiae [1]): 0 cm | Activity (Candida albicans [2]): inactive | inhibition zone (IZ) (Saccharomyces cerevisiae [3]): 0 cm | Activity (Candida albicans [4]): inactive

CC(=O)[C@H]1CC[C@H]2[C@@H]3CCC4=CC(=O)CC[C@]4(C)[C@H]3CC[C@]12C [PROGESTERONE]
inhibition zone (IZ) (Saccharomyces cerevisiae [1]): 0 cm | Activity (Candida albicans [2]): inactive | inhibition zone (IZ) (Saccharomyces cerevisiae [3]): 0 cm | Activity (Candida albicans [4]): inactive

CCC(=O)Nc1ccc(Cl)c(Cl)c1 [PROPANIL]
inhibition zone (IZ) (Saccharomyces cerevisiae [1]): 0.3 cm | Activity (Candida albicans [2]): Active | inhibition zone (IZ) (Saccharomyces cerevisiae [3]): 0.9 cm | Activity (Candida albicans [4]): Active

O=c1c(O)c(-c2ccc(O)c(O)c2)oc2cc(O)cc(O)c12 [QUERCETIN]
inhibition zone (IZ) (Saccharomyces cerevisiae [1]): 0 cm | Activity (Candida albicans [2]): inactive | inhibition zone (IZ) (Saccharomyces cerevisiae [3]): 0 cm | Activity (Candida albicans [4]): inactive

C=C[C@H]1CN2CC[C@H]1C[C@@H]2[C@@H](O)c1ccnc2ccc(OC)cc12 [QUINIDINE]
inhibition zone (IZ) (Saccharomyces cerevisiae [1]): 0.8 cm | Activity (Candida albicans [2]): Active | inhibition zone (IZ) (Saccharomyces cerevisiae [3]): 0.8 cm | Activity (Candida albicans [4]): Active

COC(=O)c1ccccc1-c1c2ccc(=N)cc-2oc2cc(N)ccc12.Cl [RHODAMINE123]
inhibition zone (IZ) (Saccharomyces cerevisiae [1]): 1 cm | Activity (Candida albicans [2]): Active | inhibition zone (IZ) (Saccharomyces cerevisiae [3]): 0.1 cm | Activity (Candida albicans [4]): inactive

CC/N=c1\cc2oc3cc(NCC)c(C)cc3c(-c3ccccc3C(=O)OCC)c-2cc1C.Cl [RHODAMINE 6G HYDROCHLORIDE]
inhibition zone (IZ) (Saccharomyces cerevisiae [1]): 0.8 cm | Activity (Candida albicans [2]): Active | inhibition zone (IZ) (Saccharomyces cerevisiae [3]): 0.2 cm | Activity (Candida albicans [4]): inactive

Source: ChEMBL document CHEMBL1275276, “Analysis of physico-chemical properties of substrates of ABC and MFS multidrug transporters of pathogenic Candida albicans” (2010)
